Experimental data published in article PMC7038240 (Antimicrobial Agents and Chemotherapy, 2020).
Like-named read-outs stand apart in the source and are kept apart here.

Assays:
[1] = tested on: P. aeruginosa clinical isolates; test: microbe, parasite or virus in culture; format: cell-based, Pseudomonas aeruginosa
Method: (§1) The antibacterial activity of the cephalosporins alone was included to ascertain the level of potentiation by the partnered BLI. BLIs were tested at a fixed concentration of 4 μg/ml in all combinations except cefepime-tazobactam, where tazobactam was fixed at a concentration of 8 μg/ml ([38]).
(§2) The in vitro antibacterial activity of the β-lactams alone or in combination with the BLIs was determined in cation-adjusted Mueller-Hinton broth (CAMHB) microdilution assays according to CLSI recommendations ([51]). […] The inocula for the broth microdilution assays were prepared by the broth culture method ([51]).

[2] = tested on: Enterobacterales clinical isolates; test: MIC distributions in panels of clinical isolates (MIC50, MIC90, % susceptible); format: cell-based
Method: as §1, §2

E. cloacae = test: microbe, parasite or virus in culture; format: cell-based; conditions: Enterobacter cloacae, read-out: MIC
Method: as §1, §2

Cn1c(N)c(NC(=O)NCCN)c[n+]1CC1=C(C(=O)O)N2C(=O)[C@@H](NC(=O)/C(=N\OC(C)(C)C(=O)[O-])c3nsc(N)n3)[C@H]2SC1 [TOL]
% Susceptible isolates ([1]; GES/KPC/VIM carbapenemase producing (n = 17)): 0%
% Susceptible isolates ([1]; PDC variants (n = 10)): 0%
% Susceptible isolates ([1]; Wild-type, basal level Class C and OprD downregulation with RND efflux upregulation (n=14)): 85.7%
% Susceptible isolates ([2]; ESBL (n = 20)): 0%
% Susceptible isolates ([2]; KPC (n = 20)): 0%
% Susceptible isolates ([2]; MBL (n = 20)): 0%
% Susceptible isolates ([2]; Mixed Class A and C (n = 22)): 0%
% Susceptible isolates ([2]; OXA-48/48-like (n = 20)): 5%
MIC (E. cloacae; strain 20, p99 AmpC/CTX-M-27/SHV-12/ACT-2/TEM-135): 32 µg/mL
MIC (E. cloacae; strain 116723, p99 AmpC/TEM-1/CTX-M-3): 32 µg/mL
MIC (E. cloacae; strain 138212, p99 AmpC/SHV-71/TEM-1): 32 µg/mL
MIC (E. cloacae; strain 847426, KPC): ≥ 256 µg/mL
MIC (E. cloacae; strain 874381, CTX-M-15): ≥ 256 µg/mL
MIC (E. cloacae; strain 875134, TEM-1/CTX-M-3/DHA-1): 64 µg/mL
MIC (E. cloacae; strain 891849, TEM-1): 32 µg/mL
MIC (E. cloacae; strain 920937, VIM-1): ≥ 256 µg/mL
MIC (E. cloacae; strain 937223, SHV-12/CTX-M-9/ACT-7): 32 µg/mL
MIC (E. cloacae; strain 938772, TEM-OSBL/CTX-M-15/ACT-30): 128 µg/mL
MIC (E. cloacae; strain 976004, OXA-48): ≥ 256 µg/mL
MIC (E. cloacae; strain 1249072, TEM-OSBL(b)/VIM-1): ≥ 256 µg/mL
MIC (E. cloacae; strain 1365477, TEM-OSBL(b)/VIM-1): ≥ 256 µg/mL
MIC (E. cloacae; strain CDC-0053, KPC-3/TEM-1): 128 µg/mL
MIC (E. cloacae; strain CDC-0163, KPC/CTX-M-1/ACT/MIR): 128 µg/mL
